{
  "source": "patent US9428507B2",
  "about": "“Compounds for the treatment of malaria” (The Broad Institute, Inc., priority 2013, dated 2016)",
  "key": {"P. falciparum 7G8": {"system": "P. falciparum 7G8", "test": "In vitro P. falciparum blood-stage assay, strain 7G8", "type": "cell-based", "settings": "Plasmodium falciparum", "protocol": "(§1) Strains of Plasmodium falciparum (Dd2, 3D7, D6, K1, NF54, V1/3, HB3, 7G8, FCB, TM90C2B) were obtained from Malaria Research and Reference Reagent Resource Center (MR4). P. falciparum isolates were maintained with O-positive human blood in an atmosphere of 93% N2, 4% CO2, 3% O2 at 37° C. in complete culturing medium (10.4 g/L RPMI 1640, 5.94 g/L HEPES, 5 g/L albumax II, 50 mg/L hypoxanthine, 2.1 g/L sodium bicarbonate, 10% human serum and 43 mg/L gentamicin). Parasites were cultured in medium until the parasitemia reached 3-8%. Parasitemia was determined by checking at least 500 red blood cells from a Giemsa-stained blood smear. For the compound screening, a parasite suspension at 2.0% parasitemia and 2.0% hematocrit was created with medium. 25 μl of medium was dispensed into 384-well, black, clear-bottom plates. 100 nl of compounds in DMSO was transferred into the assay plates along with control compound (mefloquine). Next, 25 μl of the parasite suspension in medium was dispensed into the assay plates such that the final parasitemia was 1% and the final hematocrit was 1%. The assay plates were incubated for 72 hours at 37° C. […] The assay plates were read with 505 dichroic mirrors with 485-nm excitation and 530-nm emission settings."}, "P. falciparum NF54": {"system": "P. falciparum NF54", "test": "In vitro P. falciparum blood-stage assay, strain NF54", "type": "cell-based", "settings": "Plasmodium falciparum", "protocol": "as §1"}, "[1]": {"system": "P. berghei (ANKA GFP-luc) blood stage parasites", "test": "In vivo P. berghei blood-stage assay", "set-up": "species or system CD-1 mice", "settings": "50 mg/kg 4x, p.o., T/E", "protocol": "CD-1 mice (n=4 per experimental group; female; 6-7-week-old; 20-24 g) were inoculated with 1×10^6 P. berghei (ANKA GFP-luc) blood stage parasites intravenously 24 hours before treatment and compounds were administered orally (at 0 hour). Parasitemia was monitored by the In vivo Imaging System (IVIS 100, Xenogen; Caliper Life Sciences) to acquire the bioluminescence signal. In addition, blood smear samples were obtained from each mouse on day 4 after inoculation, stained with Giemsa, and viewed under a microscope for visual detection of blood parasitemia. Animals with parasitemia exceeding 20% were euthanized."}, "P. falciparum D6": {"system": "P. falciparum D6", "test": "In vitro P. falciparum blood-stage assay, strain D6", "type": "cell-based", "settings": "Plasmodium falciparum", "protocol": "as §1"}, "P. falciparum HB3": {"system": "P. falciparum HB3", "test": "In vitro P. falciparum blood-stage assay, strain HB3", "type": "cell-based", "settings": "Plasmodium falciparum", "protocol": "as §1"}, "P. cynomolgi": {"system": "P. cynomolgi", "test": "In vitro P. cynomolgi liver stage assay in primary rhesus monkey hepatocytes", "type": "cell-based", "settings": "Plasmodium cynomolgi, Hepatocyte, in Macaca mulatta", "protocol": "An in vitro P. cynomolgi liver stage assay was performed as described in Zeeman et al. Antimicrobial Agents and Chemotherapy, 2014, 58:1586-1595. 96-well plates are seeded with freshly isolated or thawed cryopreserved stocks of primary rhesus monkey hepatocytes one or two days before infection with 5×10^4 freshly dissected P. cynomolgisporozoites per well. After 2-3 h of sporozoite invasion into the hepatocytes, culture medium is exchanged for culture medium containing appropriate compound dilutions. Initially, compounds are tested in duplicate in 3 dilutions: 0.1, 1 and 10 μM. Plates are incubated for 6 days with medium exchange (including compound dilutions) every other day. Plates are fixed in methanol and parasites are stained with rabbit anti-PcyHSP70 antiserum in the presence of DAPI to stain the nuclei. Plates are automatically counted in a high-content imager (Operetta®) and small parasites (hypnozoites, s.f.) and large schizonts (I.f.) are recorded, as well as number of hepatocytes as a measure for cytotoxic effects of the compounds. Controls include uninfected hepatocytes, sporozoite infected wells without compound and infected wells with primaquine and atovaquone. When activity is recorded and reported, a more extensive dilution curve can be evaluated: a 7-point 3-fold dilution series from days 0-6."}, "P. falciparum FCB": {"system": "P. falciparum FCB", "test": "In vitro P. falciparum blood-stage assay, strain FCB", "type": "cell-based", "settings": "Plasmodium falciparum", "protocol": "as §1"}, "[2]": {"system": "P. falciparum asexual erythocytic stage", "test": "Erythrocytic stage, asexual (P. falciparum)", "type": "cell-based", "settings": "Plasmodium falciparum", "protocol": "as §1"}},
  "note": "Where two headings read alike, the source gives them in different places.",
  "data": [
    {"smiles": "COc1ccc2c3c([nH]c2c1)[C@H](CO)N(C(C)=O)CC31CCN(C(=O)Nc2ccccc2F)CC1", "note": "[Compound 15, (R)-2′-acetyl-N-(2-fluorophenyl)-1′-(hydroxymethyl)-7′-methoxy-1′,2′,3′,9′-tetrahydrospiro [piperidine-4,4′-pyrido[3,4-b]indole]-1-carboxamide]", "values": [
      {"measurement": "IC50", "setting": "P. falciparum 7G8", "value": 113, "unit": "nM"},
      {"measurement": "IC50", "setting": "P. falciparum NF54", "value": 88, "unit": "nM"},
      {"measurement": "% Activity", "setting": "[1]", "value": 94.20, "unit": "%"},
      {"measurement": "% of control", "setting": "[1]", "value": 5.80, "unit": "%"},
      {"measurement": "Avg. Mouse survival", "setting": "[1]", "value": 6.3, "unit": "days"},
      {"measurement": "Mouse survival in days, M1", "setting": "[1]; mouse M1", "value": 6, "unit": "days"},
      {"measurement": "Parasitized RBC over 100, M1", "setting": "[1]; mouse M1", "value": 3.70},
      {"measurement": "Mouse survival in days, M2", "setting": "[1]; mouse M2", "value": 6, "unit": "days"},
      {"measurement": "Parasitized RBC over 100, M2", "setting": "[1]; mouse M2", "value": 3.20},
      {"measurement": "Mouse survival in days, M3", "setting": "[1]; mouse M3", "value": 7, "unit": "days"},
      {"measurement": "Parasitized RBC over 100, M3", "setting": "[1]; mouse M3", "value": 2.80},
      {"measurement": "IC50", "setting": "P. falciparum D6", "value": 70, "unit": "nM"},
      {"measurement": "IC50", "setting": "P. falciparum HB3", "value": 147, "unit": "nM"},
      {"measurement": "IC50", "setting": "P. cynomolgi; large schizonts (l.f.), read-out: IC50 exo-erythrocytic stage P. cynomolgi (l.f)", "value": 832, "unit": "nM"},
      {"measurement": "IC50", "setting": "P. cynomolgi; small parasites (hypnozoites, s.f.), read-out: IC50 exo-erythrocytic stage P. cynomolgi (s.f)", "value": 344, "unit": "nM"},
      {"measurement": "IC50", "setting": "P. falciparum FCB", "value": 130, "unit": "nM"},
      {"measurement": "IC50", "setting": "[2]", "value": 64, "unit": "nM"}
    ]}
  ]
}
